Measurements as given in paper PMC10826971, “Evaluating protein cross-linking as a therapeutic strategy to stabilize SOD1 variants in a mouse model of familial ALS” (PLOS Biology, 2024).

How the values were obtained:
[1] = target: SOD1 (Homo sapiens, UniProt P00441); format: binding
Description: A computational search was performed in PubChem to identify all compounds containing a cyclic disulfide motif. […] Of these, 69 compounds cross-linked SOD1 with a wide array of reaction rates. Only 2 compounds could cross-link 100% of SOD1 during the assay, including one 5-membered cyclic disulfide (4-Amino-1,2-Dithiolane-4-Carboxylic Acid) and one 6-membered cyclic thiosulfinate (1,2-dithiane 1-oxide).

[2] = system: transthyretin; details: only approved drug with a kinetic stabilizing mechanism; cited from earlier work

Sequence of SOD1 (P00441 2-154 limits assumed): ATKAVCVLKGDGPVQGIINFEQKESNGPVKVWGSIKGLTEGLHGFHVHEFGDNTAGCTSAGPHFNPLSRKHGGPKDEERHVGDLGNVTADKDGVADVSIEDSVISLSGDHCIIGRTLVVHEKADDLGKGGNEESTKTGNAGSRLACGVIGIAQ

| SOD1 cross-linked during the assay [1] | Structure (SMILES) | increase in thermal stability [2] |
| --- | --- | --- |
| 100% | NC1(C(=O)O)CSSC1 [4-Amino-1,2-Dithiolane-4-Carboxylic Acid] | – |
| – | O=C(O)c1ccc2nc(-c3cc(Cl)cc(Cl)c3)oc2c1 [tafamidis] | 6 °C |
